Columns and labels:
[1] = molecular target: T1, delF508-CFTR (Homo sapiens, UniProt P13569, DEL508-508); experiment: Measurement of delF508-CFTR-HRP surface expression in CFBE41o- cells; type: cell-based; settings: for EC50: HRP-tagged delF508-CFTR in CFBE41o- cells, 24 h with compound, luminescence, 10-point curve, top 10 μM; for Emax: efficacy relative to reference compound 3-(6-(1-(2,2-difluorobenzo[d][1,3]dioxol-5-yl)cyclopropane-1-carboxamido)-3-methylpyridin-2-yl)benzoic acid, CFBE41o- cells, 24 h, read-out: DelF508-CFTR-HRP Amax %
T1 construct: expressed in transfected cells
T1 sequence (P13569 with tags, fused parts or gaps DEL508-508): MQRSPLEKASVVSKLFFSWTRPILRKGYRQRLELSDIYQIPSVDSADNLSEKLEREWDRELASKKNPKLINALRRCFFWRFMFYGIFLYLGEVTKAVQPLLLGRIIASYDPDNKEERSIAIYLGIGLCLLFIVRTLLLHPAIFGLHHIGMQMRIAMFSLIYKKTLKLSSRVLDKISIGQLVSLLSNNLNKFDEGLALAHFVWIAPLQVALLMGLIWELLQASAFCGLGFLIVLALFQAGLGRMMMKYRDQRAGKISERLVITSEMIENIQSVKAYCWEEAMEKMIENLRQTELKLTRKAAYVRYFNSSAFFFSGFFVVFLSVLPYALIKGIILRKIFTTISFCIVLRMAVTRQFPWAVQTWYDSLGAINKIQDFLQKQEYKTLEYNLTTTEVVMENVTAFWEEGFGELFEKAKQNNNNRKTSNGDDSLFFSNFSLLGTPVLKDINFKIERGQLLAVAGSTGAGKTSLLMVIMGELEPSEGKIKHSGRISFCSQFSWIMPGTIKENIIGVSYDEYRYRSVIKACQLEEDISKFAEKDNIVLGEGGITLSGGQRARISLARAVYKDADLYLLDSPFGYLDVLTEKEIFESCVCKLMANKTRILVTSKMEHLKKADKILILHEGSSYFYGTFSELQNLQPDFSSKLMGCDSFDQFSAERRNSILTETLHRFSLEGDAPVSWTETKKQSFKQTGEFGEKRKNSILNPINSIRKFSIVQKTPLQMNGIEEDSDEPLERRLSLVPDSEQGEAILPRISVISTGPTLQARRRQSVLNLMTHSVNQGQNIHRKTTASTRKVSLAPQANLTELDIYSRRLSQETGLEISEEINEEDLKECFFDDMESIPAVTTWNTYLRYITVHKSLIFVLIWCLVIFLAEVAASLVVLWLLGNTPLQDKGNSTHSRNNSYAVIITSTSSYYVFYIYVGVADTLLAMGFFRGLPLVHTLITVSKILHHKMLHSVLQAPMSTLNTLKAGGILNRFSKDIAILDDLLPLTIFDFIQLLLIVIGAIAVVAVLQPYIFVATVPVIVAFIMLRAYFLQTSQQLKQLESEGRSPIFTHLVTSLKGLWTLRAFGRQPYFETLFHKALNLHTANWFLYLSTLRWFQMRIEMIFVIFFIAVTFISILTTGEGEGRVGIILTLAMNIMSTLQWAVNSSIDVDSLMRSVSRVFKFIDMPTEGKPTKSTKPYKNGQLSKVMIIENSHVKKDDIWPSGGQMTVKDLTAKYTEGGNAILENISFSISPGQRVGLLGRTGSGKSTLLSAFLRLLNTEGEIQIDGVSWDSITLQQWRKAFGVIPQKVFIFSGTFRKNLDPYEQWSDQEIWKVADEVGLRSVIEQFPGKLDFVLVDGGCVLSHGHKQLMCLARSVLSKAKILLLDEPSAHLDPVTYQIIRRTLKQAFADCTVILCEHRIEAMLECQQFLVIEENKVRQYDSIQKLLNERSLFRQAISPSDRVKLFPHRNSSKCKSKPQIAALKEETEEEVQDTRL
Method in brief: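 CFBE41o- cells stably expressing delF508-CFTR with HRP in the fourth extracellular loop, induced with 500 ng/mL doxycycline for 48 h, then treated with compound (top 10 μM, 10-point 3-fold) for 24 h at 37° C. Surface HRP detected by luminescence with cell-impermeant substrate; EC50 from logistic fit of triplicates, normalized to lowest concentration.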

[2] = molecular target: T1, delF508-CFTR; experiment: delF508-CFTR functional activity in primary human bronchial epithelial cells (HBECs), Multi-Transepithelial Clamp Circuit (MTECC-24) assay; type: cell-based; settings: for EC50: primary human delF508-CFTR bronchial epithelial cells, 24 h with compound, equivalent short circuit current (Ieq), forskolin plus potentiator, mean of at least two replicates, read-out: MTECC24-CFHBEC EC50; for MTECC24-CFHBEC Amax %: test compound added 24 h before assay, with potentiator (S)-3-amino-6-methoxy-N-(3,3,3-trifluoro-2-hydroxy-2-methylpropyl)-5-(trifluoromethyl)picolinamide, relative to 2 μM 3-(6-(1-(2,2-difluorobenzo[d][1,3]dioxol-5-yl)cyclopropane-1-carboxamido)-3-methylpyridin-2-yl)benzoic acid + 0.5 μM N-(2,4-di-tert-butyl-5-hydroxyphenyl)-4-oxo-1,4-dihydroquinoline-3-carboxamide
Text: Measurement of delF508-CFTR Functional Activity in Primary Human Bronchial Epithelial Cells (HBECs) Using Multi-Transepithelial Clamp Circuit (MTECC-24) Assay
This assay measures the functional activity of the CFTR channel (Chloride ion transport) in patient derived primary human bronchial epithelial cells with forskolin activation and in the presence of the CFTR corrector/potentiator combination.
Primary human delF508-CFTR bronchial epithelial cells were and cultured according to previously established methods (Neuberger, T. et, al., Methods in Molecular Biology, 2011, 741, pp 39-54). Briefly, before thawing the HBEC cells, T25 flasks were coated with 2 mL of 3T3 conditioned media (MTI-GlobalStem, Cat #GSM9100) for at least 12 hours in 37° C. CO2 incubator. 1.7×10^5 cells were seeded into one T25 flask with 5 mL of HBE growth media (BEBM with supplements (Lonza, Cat #CC-3170) with 10 nM of retinoic acid (Sigma, Cat #R-2625) and 1% of PSA (Hyclone, Cat #SV30079.01). Media was changed every day till the cells were 100% confluent. Cells were seeded into T75 flasks (pre-coated with 5 mL of 3T3 conditioned media for more than 12 hrs) at 4.95×10^5 cells/T75 flask in 15 mL of HBE growth media. Flasks were fed everyday with fresh HBE growth media until the cells were confluent. 24-well transwell plates (Corning, Cat #3378) were coated with 3T3 conditioned media (70 μL on top of the filter, 350 μL to the bottom of the well) overnight in the 37° C. CO2 incubator. Cells were seeded in the pre-coated 24-well transwell plates at 1.7×10^5 cell/well with 700 μL of growth media at the bottom of the well and 200 μL of growth media at the top of the filter. After 24 hrs, cells were switched into HBE differentiation media ((DMEM/F12 (Gibco, Cat #11330-032) supplement with 2% Ultroser G (Pall, Cat #15950-017), 2% of Fetal Clone II (Hyclone, Cat #SH30066.03), 0.25% Bovine Brain Extract (Lonza, Cat #CC-4098), 1% of PSA, 2.5 μg/mL of Insulin (Sigma, Cat #19278), 20 nM of Hydrocortisone (Sigma, Cat #H0888), 500 nM of Triiodothyronine (Sigma, Cat #T6397), 2.5 μg/mL of Transferrin (Sigma, Cat #T8158), 250 nM of Ethanolamine (Sigma, Cat #E0135), 1.5 μM of Epinephrine (Sigma, Cat #E4250), 250 nM of Phosphoethanolamine (Sigma, Cat #P0503), 10 nM of retinoic acid)) with 200 μL on top of the filter (apical side) and 700 μL at the bottom of the well (basolateral side). Cells were fed every other day with the differentiation media. After 4 days, cells were exposed to air/liquid interface. Then cells were fed every other day for 4 weeks before fully differentiated.
Cells were washed with 3 mM DTT in PBS at 70 ul/well for 30 min at 37° C. 6 days before the assay. 3 days before the assay, cells were washed again with PBS at 70 ul/well for 30 min at 37° C. Then cells were treated with compound for 24 hrs before the assay.
Following 24 hr treatment with compound, cells were transferred into plates containing 750 ul of assay media on basolateral side and 250 ul on apical side (Assay medium: F-12 Coon's modified, 20 mM HEPES pH7.4 with TRIS Base, No FCS or bicarbonate). The plates wee then transferred to the heated plate compartments (basolateral buffer temperature ˜36.5° C. on the heating block) of the TECC24 system for 45 mins prior to measurements.
Modulators were added sequentially as follows while the TECC24 instrument recorded the equivalent short circuit current (Ieq):
Prior to dilution into assay medium the stocks were as follows: • Benzamil stock: 10 mM in DMSO • Forskolin Stock: 50 mM in DMSO • N-(2,4-di-tert-butyl-5-hydroxyphenyl)-1,4-dihydro-4-oxoquinoline-3-carboxamide: 50 mM in DMSO • (S)-3-amino-6-methoxy-N-(3,3,3-trifluoro-2-hydroxy-2-methylpropyl)-5-(trifluoromethyl)picolinamide: 50 mM stock 100% DMSO • Bumetanide stock: 20 mM in EtOH
The data was normalized using the median signal from wells treated with 0.1% DMSO as a baseline. Curve fitting and EC50 calculations were performed using the following equation: […]

Structure (SMILES)	EC50 [1] [nM]	Emax [1] [%]	EC50 [2] [nM]	MTECC24-CFHBEC Amax % [2] [%]
CCN(CCC(=O)O)c1cccc(S(=O)(=O)Nc2ccc(C(F)(F)F)c(-c3cccc(F)c3C)n2)n1 [Compound 56, 3-(ethyl(6-(N-(6-(3-fluoro-2-methylphenyl)-5-(trifluoromethyl)pyridin-2-yl)sulfamoyl)pyridin-2-yl)amino)propanoic Acid]	2170	906	373	131
Cc1ccccc1-c1nc(NS(=O)(=O)c2cccc(N3CCC[C@@H](CC(=O)O)C3)n2)ccc1C(F)(F)F [Compound 60, (S)-2-(1-(6-(N-(6-(o-tolyl)-5-(trifluoromethyl)pyridin-2-yl)sulfamoyl)pyridin-2-yl)piperidin-3-yl)acetic Acid]	1910	997	65	128
Cc1ccccc1-c1nc(NS(=O)(=O)c2cccc(N(C)CCCCC(=O)O)n2)ccc1C(F)(F)F [Compound 66, 5-(methyl(6-(N-(6-(o-tolyl)-5-(trifluoromethyl)pyridin-2-yl)sulfamoyl)pyridin-2-yl)amino)pentanoic Acid]	1600		185	133
Cc1c(F)cccc1-c1nc(NS(=O)(=O)c2cccc(N(C)CCCCC(=O)O)n2)ccc1C(F)(F)F [Compound 67, 5-((6-(N-(6-(3-fluoro-2-methylphenyl)-5-(trifluoromethyl)pyridin-2-yl)sulfamoyl)pyridin-2-yl)(methyl)amino)pentanoic Acid]	1630		161	168
CCN(CCC(=O)O)c1cccc(S(=O)(=O)Nc2ccc(C(F)(F)F)c(-c3ccccc3C)n2)n1 [Compound 71, 3-(ethyl(6-(N-(6-(o-tolyl)-5-(trifluoromethyl)pyridin-2-yl)sulfamoyl)pyridin-2-yl)amino)propanoic Acid]	2360		365	137
CCc1ccccc1-c1nc(NS(=O)(=O)c2cccc(N(CC)CCC(=O)O)n2)ccc1C(F)(F)F [Compound 72, 3-(ethyl(6-(N-(6-(2-ethylphenyl)-5-(trifluoromethyl)pyridin-2-yl)sulfamoyl)pyridin-2-yl)amino)propanoic Acid]	1880		116	118
CCN(CCC(=O)O)c1cccc(S(=O)(=O)Nc2ccc(C(F)(F)F)c(-c3ccccc3C3CC3)n2)n1 [Compound 80, 3-((6-(N-(6-(2-cyclopropylphenyl)-5-(trifluoromethyl)pyridin-2-yl)sulfamoyl)pyridin-2-yl)(ethyl)amino)propanoic Acid]	1930		105	95
CCc1ccc(F)cc1-c1nc(NS(=O)(=O)c2cccc(N(CC)CCC(=O)O)n2)ccc1C(F)(F)F [Compound 81, 3-(ethyl(6-(N-(6-(2-ethyl-5-fluorophenyl)-5-(trifluoromethyl)pyridin-2-yl)sulfamoyl)pyridin-2-yl)amino)propanoic Acid]	1770		35	145
Cc1ccc(F)cc1-c1nc(NS(=O)(=O)c2cccc(N(C)CCCC(=O)O)n2)ccc1C(F)(F)F [Compound 92, 4-((6-(N-(6-(5-fluoro-2-methylphenyl)-5-(trifluoromethyl)pyridin-2-yl)sulfamoyl)pyridin-2-yl)(methyl)amino)butanoic Acid]	1820		394	123

More lines, in order of falling EC50 [1], values ahead:

EC50 [1] [nM]	Emax [1] [%]	EC50 [2] [nM]	MTECC24-CFHBEC Amax % [2] [%]	Structure (SMILES)
1570		68	126	CCN(CCC(=O)O)c1cccc(S(=O)(=O)Nc2ccc(C(F)(F)F)c(-c3ccccc3C(C)C)n2)n1 [Compound 70, 3-(ethyl(6-(N-(6-(2-isopropylphenyl)-5-(trifluoromethyl)pyridin-2-yl)sulfamoyl)pyridin-2-yl)amino)propanoic Acid]
1430		40	235	CCc1ccc(F)cc1-c1nc(NS(=O)(=O)c2cccc(N(C)CCCC(=O)O)n2)ccc1C(F)(F)F [Compound 93, 4-((6-(N-(6-(2-ethyl-5-fluorophenyl)-5-(trifluoromethyl)pyridin-2-yl)sulfamoyl)pyridin-2-yl)(methyl)amino)butanoic Acid]
1410		30	152	CCc1ccccc1-c1nc(NS(=O)(=O)c2cccc(N3CCC[C@@H](CC(=O)O)C3)n2)ccc1C(F)(F)F [Compound 85, (S)-2-(1-(6-(N-(6-(2-ethylphenyl)-5-(trifluoromethyl)pyridin-2-yl)sulfamoyl)pyridin-2-yl)piperidin-3-yl)acetic Acid]
1380		61	253	Cc1ccccc1-c1nc(NS(=O)(=O)c2cccc(N(CCC(=O)O)CC3CC3)n2)ccc1C(F)(F)F [Compound 86, 3-((cyclopropylmethyl)(6-(N-(6-(o-tolyl)-5-(trifluoromethyl)pyridin-2-yl)sulfamoyl)pyridin-2-yl)amino)propanoic Acid]
1380		104	269	CCCCN(CCCC(=O)O)c1cccc(S(=O)(=O)Nc2ccc(C(F)(F)F)c(-c3ccccc3C)n2)n1 [Compound 87, 4-(butyl(6-(N-(6-(o-tolyl)-5-(trifluoromethyl)pyridin-2-yl)sulfamoyl)pyridin-2-yl)amino)butanoic Acid]
1350	996	423	116	Cc1ccc(F)cc1-c1nc(NS(=O)(=O)c2cccc(N(C)CCCCC(=O)O)n2)ccc1C(F)(F)F [Compound 68, 5-((6-(N-(6-(5-fluoro-2-methylphenyl)-5-(trifluoromethyl)pyridin-2-yl)sulfamoyl)pyridin-2-yl)(methyl)amino)pentanoic Acid]
1350		5	135	CC(C)c1ccccc1-c1nc(NS(=O)(=O)c2cccc(N(C)CCCC(=O)O)n2)ccc1C(F)(F)F [Compound 90, 4-((6-(N-(6-(2-isopropylphenyl)-5-(trifluoromethyl)pyridin-2-yl)sulfamoyl)pyridin-2-yl)(methyl)amino)butanoic Acid]

— patent publication US20220127247A1, “N-(PYRIDIN-2-YL)PYRIDINE-SULFONAMIDE DERIVATIVES AND THEIR USE IN THE TREATMENT OF DISEASE” (NOVARTIS AG, priority 2019, published 2022)
